Experiment: solvent given as SMILES

SMILES | emission maximum (in C1CCCCC1) [nm] | emission maximum (in C1CCOC1) [nm] | emission maximum (in C1COCCO1) [nm] | emission maximum (in CCOC(C)=O) [nm] | emission maximum (in CO) [nm] | emission maximum (in Cc1ccccc1) [nm] | emission maximum (in ClC(Cl)Cl) [nm] | emission maximum (in ClCCl) [nm] | emission maximum (in CC#N) [nm] | emission maximum (in CC(C)=O) [nm] | emission maximum (in CN(C)C=O) [nm] | emission maximum (in CS(C)=O) [nm]
Cc1ccc(C2=C3C=CC(C#Cc4ccccc4)=[N+]3[B-](F)(F)n3c(C#Cc4ccccc4)ccc32)cc1 | 626 | 625 | 626 | 621 | 622 | 629 | 628 | 628 |  |  |  | 
COc1cccc(-c2[nH]c(=O)n3c2-c2ccccc2C3=O)c1O |  |  |  |  | 496 |  |  | 471 | 478 |  |  | 
CCOC(=O)C1=C(C(=O)OCC)C2(c3ccccc3-c3ccccc32)[C@@H](c2ccc(Cl)cc2)C=C2c3cc(OC)c(OC)cc3CCN21 |  |  |  |  |  |  |  | 445 |  |  |  | 
CC(C)(C)c1ccc2c(c1)c1cc(C(C)(C)C)ccc1n2-c1ccc(N(c2ccc(-c3ccc4c(c3)C(C)(C)c3cc(-c5ccc(N(c6ccc(-n7c8ccc(C(C)(C)C)cc8c8cc(C(C)(C)C)ccc87)cc6)c6ccc(-n7c8ccc(C(C)(C)C)cc8c8cc(C(C)(C)C)ccc87)cc6)cc5)ccc3-4)cc2)c2ccc(-n3c4ccc(C(C)(C)C)cc4c4cc(C(C)(C)C)ccc43)cc2)cc1 |  |  |  |  |  |  |  | 443 |  |  |  | 
CCCCN(c1ccccc1)c1ccc2c(c1)C(CC)(CC)c1cc(/C=C/c3ccc(/C=C(\C#N)C(=O)O)s3)ccc1-2 |  | 622 | 621 | 590 |  |  |  | 595 | 518 | 576 | 605 | 520

Reference: the Deep4Chem optical property database
